Test results: US7585859B2, “PDE4B inhibitors and uses therefor” (Plexxikon, Inc., priority 2004, dated 2009)

How the values were obtained:
[1] = target: T1, PDE4B: The catalytic domain of human PDE4B from S152-S528 (Homo sapiens, UniProt Q07343); experiment: PDE4 IC50 determination by Scintillation Proximity Assay, PDE4B; format: biochemical; details: Table 1B, Formula I compounds; read-out: IC50 PDE4B
T1 construct: His6 (N); thrombin cleavage site (N); made in house; host or cells: E. coli
Summary of the method: (§1)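 Scintillation counts reflected [^3H]AMP captured on yttrium silicate SPA beads after enzyme hydrolysed [^3H]cAMP for 30 min at 30°. PDE4B was used at 80 ng/ml and PDE4D at 4 ng/ml. IC50 values came from non-linear regression.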

PDE4D = target: T2, PDE4D (Homo sapiens, UniProt Q08499); experiment: PDE4 IC50 determination by Scintillation Proximity Assay, PDE4D; format: biochemical; details: Table 1B, Formula I compounds; read-out: IC50 PDE4D
T2 construct: PDE4D: The catalytic domain of human PDE4B from S3 16-V692; His6 (N); thrombin cleavage site (N); made in house; host or cells: E. coli
T2 sequence (Q08499 380-756): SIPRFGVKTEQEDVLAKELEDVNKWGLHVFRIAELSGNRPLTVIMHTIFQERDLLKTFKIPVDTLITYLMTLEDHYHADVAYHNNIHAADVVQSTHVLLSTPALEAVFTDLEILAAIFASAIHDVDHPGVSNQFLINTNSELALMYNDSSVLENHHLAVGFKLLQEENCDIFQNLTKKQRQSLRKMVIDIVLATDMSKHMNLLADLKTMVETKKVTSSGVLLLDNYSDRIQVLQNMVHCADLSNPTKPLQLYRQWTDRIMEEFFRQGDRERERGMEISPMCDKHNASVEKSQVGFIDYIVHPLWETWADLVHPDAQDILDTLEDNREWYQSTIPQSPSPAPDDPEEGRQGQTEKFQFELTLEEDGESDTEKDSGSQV
Summary of the method: as §1

T1 sequence (Q07343 with tags, fused parts or gaps): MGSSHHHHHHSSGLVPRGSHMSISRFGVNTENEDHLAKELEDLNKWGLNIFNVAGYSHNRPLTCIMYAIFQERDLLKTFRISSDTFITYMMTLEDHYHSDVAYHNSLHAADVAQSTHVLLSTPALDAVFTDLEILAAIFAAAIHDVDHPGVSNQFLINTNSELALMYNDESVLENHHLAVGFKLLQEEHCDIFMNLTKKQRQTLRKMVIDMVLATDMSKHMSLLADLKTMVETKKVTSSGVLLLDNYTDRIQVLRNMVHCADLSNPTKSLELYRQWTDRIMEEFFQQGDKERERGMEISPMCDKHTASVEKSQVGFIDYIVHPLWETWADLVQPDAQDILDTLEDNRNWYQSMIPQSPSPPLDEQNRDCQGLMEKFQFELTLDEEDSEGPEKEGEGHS

| Compound | IC50 [1] | IC50 (PDE4D) |
| --- | --- | --- |
| COC(=O)C(CC(C)C)Nc1sc(C(=O)c2ccccc2Cl)c(N)c1C#N (stereo not shown) [Compound 1-111, 2-[4-Amino-5-(2-chloro-benzoyl)-3-cyano-thiophene-2-ylamino]-4-methyl-pentanoic acid methyl ester] | < 10 µM | < 10 µM |
| COC(=O)C(CCSC)Nc1sc(C(=O)c2ccccc2Cl)c(N)c1C#N (stereo not shown) [Compound 1-112, 2-[4-Amino-5-(2-chloro-benzoyl)-3-cyano-thiophene-2-ylamino]-4-methylsulfanyl-butyric acid methyl ester] | < 10 µM | < 10 µM |
| COc1ccc(CNc2sc(C(=O)c3ccccc3Cl)c(N)c2C#N)cc1OC [Compound 1-113, 4-Amino-5-(2-chloro-benzoyl)-2-(3,4-dimethoxy-benzylamino)-thiophene-3-carbonitrile] | < 10 µM | < 10 µM |
| N#Cc1c(Nc2ccc(C(=O)NC3CCOC3=O)cc2)sc(C(=O)c2ccccc2Cl)c1N (stereo not shown) [Compound 1-114, 4-[4-Amino-5-(2-chloro-benzoyl)-3-cyano-thiophen-2-ylamino]-N-(2-oxo-tetrahydro-furan-3-yl)-benzamide] | < 10 µM | < 10 µM |
| N#Cc1c(NC2CCCC2)sc(C(=O)c2ccccc2Cl)c1N [Compound 1-115, 4-Amino-5-(2-chloro-benzoyl)-2-cyclopentylamino-thiophene-3-carbonitrile] | < 10 µM | < 10 µM |
| N#Cc1c(NC2CCOC2=O)sc(C(=O)c2ccccc2Cl)c1N (stereo not shown) [Compound 1-116, 4-Amino-5-(2-chloro-benzoyl)-2-(2-oxo-tetrahydro-furan-3-ylamino)-thiophene-3-carbonitrile] | > 10 µM | > 10 µM |
| COc1ccc(Nc2sc(C(=O)c3cccc(Cl)c3)c(N)c2C#N)cc1 [Compound 1-117, 4-Amino-5-(3-chloro-benzoyl)-2-(4-methoxy-phenylamino)-thiophene-3-carbonitrile] | < 10 µM | < 10 µM |
| COC(=O)C(CC(C)C)Nc1sc(C(=O)c2cccc(Cl)c2)c(N)c1C#N (stereo not shown) [Compound 1-118, 2-[4-Amino-5-(3-chloro-benzoyl)-3-cyano-thiophen-2-ylamino]-4-methyl-pentanoic acid methyl ester] | < 10 µM | > 10 µM |
| N#Cc1c(Nc2ccc(C(=O)NC3CCOC3=O)cc2)sc(C(=O)c2cccc(Cl)c2)c1N (stereo not shown) [Compound 1-119, 4-[4-Amino-5-(3-chloro-benzoyl)-3-cyano-thiophen-2-ylamino]-N-(2-oxo-tetrahydro-furan-3-yl)-benzamide] | < 10 µM | < 10 µM |
| N#Cc1c(NC2CCCC2)sc(C(=O)c2cccc(Cl)c2)c1N [Compound 1-120, 4-Amino-5-(3-chloro-benzoyl) 2-cyclopentylamino-thiophene-3-carbonitrile] | < 10 µM | < 10 µM |
| COC(=O)C(CC(C)C)Nc1sc(C(=O)c2csc3ccccc23)c(N)c1C#N (stereo not shown) [Compound 1-121, 2-[4-Amino-5-(benzo[b]thiophene-3-carbonyl)-3-cyano-thiophen-2-ylamino]-4-methyl-pentanoic acid methyl ester] | < 10 µM | < 10 µM |
| COC(=O)C(CCSC)Nc1sc(C(=O)c2csc3ccccc23)c(N)c1C#N (stereo not shown) [Compound 1-122, 2-[4-Amino-5-(benzo[b]thiophene-3-carbonyl)-3-cyano-thiophen-2-ylamino]-4-methylsulfanyl-butyric acid methyl ester] | < 10 µM | < 10 µM |
| N#Cc1c(Nc2ccc(C(=O)NC3CCOC3=O)cc2)sc(C(=O)c2csc3ccccc23)c1N (stereo not shown) [Compound 1-123, 4-[4-Amino-5-(benzo[b]thiophene-3-carbonyl)-3-cyano-thiophen-2-ylamino]-N-(2-oxo-tetrahydro-furan-3-yl)-benzamide] | < 10 µM | < 10 µM |
| N#Cc1c(NC2CCCC2)sc(C(=O)c2csc3ccccc23)c1N [Compound 1-124, 4-Amino-5-(benzo[b]thiophene-3-carbonyl)-2-cyclopentylamino-thiophene-3-carbonitrile] | < 10 µM | > 10 µM |
| COC(=O)c1ccccc1Nc1sc(C(=O)c2cnn(-c3ccccc3)c2C)c(N)c1C#N [Compound 1-126, 2-[4-Amino-3-cyano-5-(5-methyl-1-phenyl-1H-pyrazole-4-carbonyl)-thiophen-2-ylamino]-benzoic acid methyl ester] | < 10 µM | < 10 µM |
| Cc1c(C(=O)c2sc(Nc3ccc(C(=O)NC4CCOC4=O)cc3)c(C#N)c2N)cnn1-c1ccccc1 (stereo not shown) [Compound 1-127, 4-[4-Amino-3-cyano-5-(5-methyl-1-phenyl-1H-pyrazole-4-carbonyl)-thiophen-2-ylamino]-N-(2-oxo-tetrahydro-furan-3-yl)-benzamide] | < 10 µM | < 10 µM |
| Cc1onc(-c2ccccc2)c1C(=O)c1sc(Nc2ccccc2F)c(C#N)c1N [Compound 1-128, 4-Amino-2-(2-fluoro-phenylamino)-5-(5-methyl-3-phenyl-isoxazole-4-carbonyl)-thiophene-3-carbonitrile] | < 10 µM | < 10 µM |
| COC(=O)C(CCSC)Nc1sc(C(=O)c2c(-c3ccccc3)noc2C)c(N)c1C#N (stereo not shown) [Compound 1-131, 2-[4-Amino-3-cyano-5-(5-methyl-3-phenyl-isoxazole-4-carbonyl)-thiophen-2-ylamino]-4-methylsulfanyl-butyric acid methyl ester] | < 10 µM | > 10 µM |
| COc1ccc(CNc2sc(C(=O)c3c(-c4ccccc4)noc3C)c(N)c2C#N)cc1OC [Compound 1-132, 4-Amino-2-(3,4-dimethoxy-benzylamino)-5-(5-methyl-3-phenyl-isoxazole-4-carbonyl)-thiophene-3-carbonitrile] | < 10 µM | < 10 µM |
| Cc1onc(-c2ccccc2)c1C(=O)c1sc(Nc2ccc(C(=O)NC3CCOC3=O)cc2)c(C#N)c1N (stereo not shown) [Compound 1-133, 4-[4-Amino-3-cyano-5-(5-methyl-3-phenyl-isoxazole-4-carbonyl)-thiophen-2-ylamino]-N-(2-oxo-tetrahydro-furan-3-yl)-benzamide] | < 10 µM | < 10 µM |
| Cc1onc(-c2ccccc2)c1C(=O)c1sc(NC2CCOC2=O)c(C#N)c1N (stereo not shown) [Compound 1-134, 4-Amino-5-(5-methyl-3-phenyl-isoxazole-4-carbonyl)-2-(2-oxo-tetrahydro-furan-3-ylamino)-thiophene-3-carbonitrile] | < 10 µM | > 10 µM |
| CCOC(=O)c1cc(C(=O)c2sc(NCCN3CCCCC3)c(C#N)c2N)on1 [Compound 1-135, 5-[3-Amino-4-cyano-5-(2-piperidin-1-yl-ethylamino)-thiophene-2-carbonyl]-isoxazole-3-carboxylic acid ethyl ester] | < 10 µM | < 10 µM |

Second part, the compound after the results:

| IC50 [1] | IC50 (PDE4D) | Compound |
| --- | --- | --- |
| > 10 µM | > 10 µM | CCOC(=O)c1cc(C(=O)c2sc(NC(=O)c3ccccc3C)c(C#N)c2N)on1 [Compound 1-136, 5-[3-Amino-4-cyano-5-(2-methyl-benzoylamino)-thiophene-2-carbonyl]-isoxazole-3-carboxylic acid ethyl ester] |
| < 10 µM | > 10 µM | CCOC(=O)c1cc(C(=O)c2sc(NC(CC(C)C)C(=O)OC)c(C#N)c2N)on1 (stereo not shown) [Compound 1-137, 5-[3-Amino-4-cyano-5-(1-methoxycarbonyl-3-methyl-butylamino)-thiophene-2-carbonyl]-isoxazole-3-carboxylic acid ethyl ester] |
| < 10 µM | < 10 µM | CCOC(=O)c1cc(C(=O)c2sc(Nc3ccc(C(=O)NC4CCOC4=O)cc3)c(C#N)c2N)on1 (stereo not shown) [Compound 1-138] |
| < 10 µM | > 10 µM | CCOC(=O)c1cc(C(=O)c2sc(NC3CCOC3=O)c(C#N)c2N)on1 (stereo not shown) [Compound 1-140, 5-[3-Amino-4-cyano-5-(2-oxo-tetrahydro-furan-3-ylamino)-thiophene-2-carbonyl]-isoxazole-3-carboxylic acid ethyl ester] |
| < 10 µM | < 10 µM | COC(=O)C(CC(C)C)Nc1sc(C(=O)c2cc(-c3ccccc3)no2)c(N)c1C#N (stereo not shown) [Compound 1-141, 2-[4-Amino-3-cyano-5-(3-phenyl-isoxazole-5-carbonyl)-thiophen-2-ylamino]-4-methyl-pentanoic acid methyl ester] |
| < 10 µM | < 10 µM | N#Cc1c(Nc2ccccc2F)sc(C(=O)c2ccccn2)c1N [Compound 1-144, 4-Amino-2-(2-fluoro-phenylamino)-5-(pyridine-2-carbonyl)-thiophene-3-carbonitrile] |
| > 10 µM | > 10 µM | COc1ccc(Nc2sc(C(=O)c3ccccn3)c(N)c2C#N)cc1 [Compound 1-145, 4-Amino-2-(4-methoxy-phenylamino)-5-(pyridine-2-carbonyl)-thiophene-3-carbonitrile] |
| < 10 µM | > 10 µM | N#Cc1cccc(Nc2sc(C(=O)c3ccccn3)c(N)c2C#N)c1 [Compound 1-146, 4-Amino-2-(3-cyano-phenylamino)-5-(pyridine-2-carbonyl)-thiophene-3-carbonitrile] |
| < 10 µM | < 10 µM | N#Cc1c(Nc2ccc3c(c2)CCC3)sc(C(=O)c2ccccn2)c1N [Compound 1-147, 4-Amino-2-(indan-5-ylamino)-5-(pyridine-2-carbonyl)-thiophene-3-carbonitrile] |
| < 10 µM | < 10 µM | COC(=O)c1ccccc1Nc1sc(C(=O)c2ccccn2)c(N)c1C#N [Compound 1-148, 2-[4-Amino-3-cyano-5-(pyridine-2-carbonyl)-thiophen-2-ylamino]-benzoic acid methyl ester] |
